Tests used:
[1] = biological target: T1, human recombinant 5-Lipoxygenase (Homo sapiens, UniProt P09917); assay: 5-Lipoxygenase Enzyme Assay; type: biochemical; settings: 70 μM arachidonic acid, 10 minute incubation at room temperature, FOX reagent, absorbance at 620 nm; read-out: inhibition of 5-Lipoxygenase with an IC50
T1 sequence (P09917 1-674): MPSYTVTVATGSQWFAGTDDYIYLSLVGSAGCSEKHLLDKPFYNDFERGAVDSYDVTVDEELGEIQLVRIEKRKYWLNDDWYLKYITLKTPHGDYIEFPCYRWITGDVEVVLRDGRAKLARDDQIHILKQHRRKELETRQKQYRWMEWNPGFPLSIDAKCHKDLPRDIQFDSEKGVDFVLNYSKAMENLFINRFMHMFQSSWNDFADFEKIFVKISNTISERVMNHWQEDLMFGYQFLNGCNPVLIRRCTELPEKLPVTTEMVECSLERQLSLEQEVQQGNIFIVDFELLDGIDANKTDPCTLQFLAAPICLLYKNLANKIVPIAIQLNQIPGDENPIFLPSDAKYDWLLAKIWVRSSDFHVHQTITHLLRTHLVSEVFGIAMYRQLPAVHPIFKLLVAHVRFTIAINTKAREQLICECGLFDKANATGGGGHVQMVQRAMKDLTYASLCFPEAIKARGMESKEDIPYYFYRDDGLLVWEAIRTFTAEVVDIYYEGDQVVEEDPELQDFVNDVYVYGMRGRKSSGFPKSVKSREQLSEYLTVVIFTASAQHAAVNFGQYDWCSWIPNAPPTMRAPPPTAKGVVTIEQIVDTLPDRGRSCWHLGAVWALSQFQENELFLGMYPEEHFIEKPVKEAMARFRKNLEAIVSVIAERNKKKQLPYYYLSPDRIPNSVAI
Description: This procedure was used for measuring the enzymatic activity of human recombinant 5-Lipoxygenase using a colorimetric method based on the ferric oxidation of xylenol orange.
• 96 well flat bottom microfilter plates (VWR, Catalog # 62402-933 9295) • Lipoxygenase screening assay buffer (Cayman, Catalog # 760710) • Human recombinant 5-Lipoxygenase (Cayman, Catalog # 60402) • Arachidonic Acid (Sigma, Catalog # A3555) • Xylenol orange tetra sodium salt (Aldrich, Catalog # 227854) • Iron (II) sulfate heptahydrate (Sigma, Catalog # F7002) • Sulfuric acid (95-98%) [18 M] • Methanol Procedure
Human recombinant 5-Lipoxygenase (Cayman Cat # 60402) was used in this assay. The test compound and/or vehicle was added to 0.5 μL 5-Lipoxygenase in 50 mM Tris-HCl buffer, pH 7.4. The reaction was initiated by addition of 70 μM arachidonic acid in Tris-HCl buffer, pH 7.4, and terminated after a 10 minute incubation at room temperature by addition of FOX reagent (25 mM sulfuric acid, 100 μM xylenol orange, 100 μM iron (II) sulfate, methanol:water 9:1). The yellow color of acidified xylenol orange was converted to a blue color by the lipid hydroperoxide-mediated oxidation of Fe^2+ ions and the interaction of the resulting Fe^3+ ions with the dye. The complex was allowed to form during a 1 hour incubation at room temperature with shaking. Absorbance of the Fe^3+ complex was then measured at […] using a spectrophotometer.
Negative controls contained enzyme during the incubation step but substrate was not added until after the FOX reagent. Compounds were screened at 5 concentrations in triplicate starting at 10 μM

[2] = system: LTB4 production in human whole blood; assay: Inhibition of LTB4 Production in Blood; type: cell-based; settings: 1 h, 20 μM A23187, 60 minutes at 37° C., LTB4 in plasma by ELISA, read-out: protection against LTB4 at an EC50
Experimental: • Human whole blood (Na citrate) (Stanford Blood Center) • A23187, (Sigma, Cat# C-7522) • Leukotriene B4 EIA reagents (Cayman Chemical, Cat # 520111) • BWA4C (Sigma, Cat # B7559) Procedure Preparation of A23187:
A23187 was prepared as a 10 mM stock solution in DMSO (aliquots can be stored at −20° C.). On the day of the assay the stock solution was diluted as follows: 70 μL 10 mM stock added to 1.6 mL plasma to give a working concentration of 0.42 mM.
From a 30 mM stock solution in DMSO, test articles were diluted to a working concentration of 600 μM in PBS (i.e. 10 μL stock solution+490 μL PBS). This is the highest concentration (gives a final testing concentration of 30 μM). From this 600 μM solution test articles were serially diluted 1:3 in PBS to give a dose-response curve. 10 μL of each concentration of test article was then added to 4 wells of a 96-well plate (i.e. testing in quadruplicate). A positive control compound, BWA4C was used in every assay.
Human whole blood was added to the plates containing compounds (190 μL per well) and mixed well. The blood was incubated with compound at 37° C. for 15 minutes. Following this incubation, 10 μL of 0.42 mM A23187 was added to each well except the negative control wells to give a final calcium ionophore concentration of 20 μM. The plates were then incubated at 37° C. for 60 minutes. After the incubation period, plates were centrifuged for 15 min at 2000 g at 4° C. in sealed microplate buckets. Plasma was then removed for quantitation of LTB4 levels by ELISA.
LTB4 levels in the plasma were determined using a commercially available ELISA kit from Cayman Chemicals. The ELISA was run according to the manufacturer's instructions. The LTB4 levels in the vehicle control sample were then compared to those in which the test article had been added. From this a percent inhibition of LTB4 production by each concentration of test article was calculated and the IC50 was determined.

## Cc1c(O)cc2c(c1C)N(c1ccc(O)cc1)C1(CC2)CC1 [1′-(4-hydroxyphenyl)-7′,8′-dimethyl-3′,4′-dihydro-1′H-spiro[cyclopropane-1,2′-quinolin]-6′-ol]
[1]
  IC50: < 0.3 µM
[2]
  EC50: < 10 µM

## Cc1c(O)cc2c(c1C)N(c1ccc(N(C)C)nc1)CC1(CCC1)C2 [1′-(6-(dimethylamino)pyridin-3-yl)-7′,8′-dimethyl-2′,4′-dihydro-1′H-spiro[cyclobutane-1,3′-quinolin]-6′-ol]
[1]
  IC50: < 0.3 µM
[2]
  EC50: < 10 µM

## Cc1c(O)c(C)c2c(c1CO)OC1(CCC1)CC2 [8-(hydroxymethyl)-5,7-dimethyl-3,4-dihydrospiro[chromene-2,1′-cyclobutan]-6-ol]
[2]
  EC50: < 10 µM

## Cc1c(O)c(C(C)C)cc2c1C(O)CC1(CCC1)O2 (stereo not drawn) [7-isopropyl-5-methylspiro[chroman-2,1′-cyclobutane]-4,6-diol]
[1]
  IC50: < 0.3 µM
[2]
  EC50: < 10 µM

## CCc1cc2c(c(CC)c1O)[C@@H](O)CC1(CCC1)O2 [(S)-5,7-diethylspiro[chroman-2,1′-cyclobutane]-4,6-diol]
[1]
  IC50: < 0.3 µM
[2]
  EC50: < 10 µM

## COC1CC2(CCC2)Oc2cc(C(C)C)c(O)c(C)c21 (stereo not drawn) [7-isopropyl-4-methoxy-5-methylspiro[chroman-2,1′-cyclobutan]-6-ol]
[1]
  IC50: < 0.3 µM
[2]
  EC50: < 10 µM

## Cc1cc2c(c(C)c1O)C(N(C)O)CC1(CCC1)O2 (stereo not drawn) [4-[hydroxy(methyl)amino]-5,7-dimethyl-3,4-dihydrospiro[chromene-2,1′-cyclobutan]-6-ol]
[2]
  EC50: < 10 µM

## Cc1cc2c(c(C)c1O)CCC1(CCC1)N2Cc1ccc2ccccc2n1 [5′,7′-dimethyl-1′-(quinolin-2-ylmethyl)-3′,4′-dihydro-1′H-spiro[cyclobutane-1,2′-quinolin]-6′-ol]
[1]
  IC50: < 0.3 µM
[2]
  EC50: < 10 µM

## CCc1c(O)c(C(C)C)cc2c1C(O)CC1(CCC1)O2 (stereo not drawn) [5-ethyl-7-isopropylspiro[chroman-2,1′-cyclobutane]-4,6-diol]
[2]
  EC50: < 10 µM

## Cc1c(O)cc2c(c1C)N(CCCNC(=O)c1ccccc1)CC1(CCC1)C2 [N-(3-(6′-hydroxy-7′,8′-dimethyl-2′,4′-dihydro-1′H-spiro[cyclobutane-1,3′-quinoline]-1′-yl)propyl)benzamide]
[1]
  IC50: < 0.3 µM
[2]
  EC50: < 10 µM

## CONC1CC2(CCC2)Oc2cc(C(C)C)c(O)c(C)c21 (stereo not drawn) [7-isopropyl-4-(methoxyamino)-5-methyl-3,4-dihydrospiro[chromene-2,1′-cyclobutan]-6-ol]
[1]
  IC50: < 0.3 µM
[2]
  EC50: < 10 µM

## CCc1cc2c(c(CC)c1O)[C@H](O)CC1(CCC1)O2 [(R)-5,7-diethylspiro[chroman-2,1′-cyclobutane]-4,6-diol]
[1]
  IC50: < 0.3 µM
[2]
  EC50: < 10 µM

## Cc1cc2c(c(C)c1O)C(O)C1(CCC1)CO2 (stereo not drawn) [5,7-dimethyl-4H-spiro[chromene-3,1′-cyclobutane]-4,6-diol]
[2]
  EC50: < 10 µM

## Cc1c(C)c2c(c(C)c1O)C(O)C1(CCC1)CO2 (stereo not drawn) [5,7,8-trimethylspiro[chroman-3,1′-cyclobutane]-4,6-diol]
[1]
  IC50: < 0.3 µM
[2]
  EC50: < 10 µM

## Cc1cc2c(c(C)c1O)C=C(c1nc(C)c(C)[nH]1)C1(CCC1)O2 [5,7-dimethyl-3-(-(4,5-dimethyl-1H-imidazol-2-yl)spiro[chromene-2,1′-cyclobutan]-6-ol]
[1]
  IC50: < 0.3 µM
[2]
  EC50: < 10 µM

## Cc1c(O)c(C(C)C)cc2c1[C@@H](O)CC1(CCC1)O2 [(S)-7-isopropyl-5-methylspiro[chroman-2,1′-cyclobutane]-4,6-diol]
[1]
  IC50: < 0.3 µM
[2]
  EC50: < 10 µM

## CCc1cc2c(c(C)c1O)C(NOC)CC1(CCC1)O2 (stereo not drawn) [7-ethyl-4-(methoxyamino)-5-methyl-3,4-dihydrospiro[chromene-2,1′-cyclobutan]-6-ol]
[1]
  IC50: < 0.3 µM
[2]
  EC50: < 10 µM

## CCc1c(O)c(CC)c2c(c1CO)OC1(CCC1)CC2 [(Z)-5,7-diethyl-8-(hydroxymethyl)-3,4-dihydrospiro[chromene-2,1′-cyclobutan]-6-ol]
[1]
  IC50: < 0.3 µM
[2]
  EC50: < 10 µM

## CCc1cc2c(c(CC)c1O)CCC1(CCC1)O2 [5,7-diethyl-3,4-dihydrospiro[chromene-2,1′-cyclobutan]-6-ol]
[1]
  IC50: < 0.3 µM
[2]
  EC50: < 10 µM

## CONCC1Cc2c(cc(C)c(O)c2C)OC12CCC2 (stereo not drawn) [3-[(methoxyamino)methyl]-5,7-dimethyl-3,4-dihydrospiro-[chromene-2,1′-cyclobutan]-6-ol]
[2]
  EC50: < 10 µM

## Cc1c(O)c(C(C)C)c(CO)c2c1CCC1(CCC1)O2 [8-(hydroxymethyl)-7-isopropyl-5-methylspiro[chroman-2,1′-cyclobutan]-6-ol]
[1]
  IC50: < 0.3 µM
[2]
  EC50: < 10 µM

## CCc1c(O)c(C)cc2c1C(NOC)CC1(CCC1)O2 (stereo not drawn) [5-ethyl-4-(methoxyamino)-7-methyl-3,4-dihydrospiro[chromene-2,1′-cyclobutan]-6-ol]
[1]
  IC50: < 0.3 µM
[2]
  EC50: < 10 µM

## Cc1c(O)c(C(C)C)cc2c1C(O)C1(CCC1)CO2 (stereo not drawn) [7-isopropyl-5-methylspiro[chroman-3,1′-cyclobutane]-4,6-diol]
[2]
  EC50: < 10 µM

## CC(C)=CCC/C(C)=C/Cc1c(O)c(C)c(C)c2c1CCC1(CCC1)O2 [5-(3,7-dimethylocta-2,6-dienyl)-7,8-dimethylspiro[chroman-2,1′-cyclobutan]-6-ol]
[1]
  IC50: < 0.3 µM
[2]
  EC50: < 10 µM

## Cc1ccc(S(=O)(=O)NCCCN2CC3(CCC3)Cc3cc(O)c(C)c(C)c32)cc1 [N-(3-(6′-hydroxy-7′,8′-dimethyl-2′,4′-dihydro-1′H-spiro[cyclobutane-1,3′-quinoline]-1′-yl)propyl)-4-methylbenzenesulfonamide]
[1]
  IC50: < 0.3 µM
[2]
  EC50: < 10 µM

## Cc1ccc(S(=O)(=O)NCCN2CC3(CCC3)Cc3cc(O)c(C)c(C)c32)cc1 [N-(2-(6′-hydroxy-7′,8′-dimethyl-2′,4′-dihydro-1′H-spiro[cyclobutane-1,3′-quinoline]-1′-yl)ethyl)-4-methylbenzenesulfonamide]
[1]
  IC50: < 0.3 µM
[2]
  EC50: < 10 µM

## Cc1cc2c(c(C)c1O)C(O)CC1(CCC1)O2 (stereo not drawn) [5,7-dimethyl-3,4-dihydrospiro[chromene-2,1′-cyclobutane]-4,6-diol]
[2]
  EC50: < 10 µM

## Cc1c(C)c2c(c(C)c1O)C(N(C)O)CC1(CCC1)O2 (stereo not drawn) [4-[hydroxy(methyl)amino]-5,7,8-trimethyl-3,4-dihydrospiro[chromene-2,1′-cyclobutan]-6-ol]
[1]
  IC50: < 0.3 µM
[2]
  EC50: < 10 µM

## Cc1c(O)c(C(C)C)cc2c1[C@H](O)CC1(CCC1)O2 [(R)-7-isopropyl-5-methylspiro[chroman-2,1′-cyclobutane]-4,6-diol]
[1]
  IC50: < 0.3 µM
[2]
  EC50: < 10 µM

From US7576094B2, “Spiro derivatives as lipoxygenase inhibitors” (Eli Lilly and Company, priority 2004, dated 2009)
